# Counter-ions that a name gives are not always drawn. Like-named read-outs stand apart in the source and are kept apart here.
# Experiments:
# [1] = system: Bone marrow derived macrophages (BMDMs), M1 gene expression; assay: M1 marker mRNA in LPS stimulated bone marrow derived macrophages (RT PCR); format: cell-based, murine; conditions: control = 1; for Il1 mRNA expression relative to control / Il6 mRNA expression relative to control / Tnfa mRNA expression relative to control: LPS stimulated BMDMs, 24 hours, normalized to GAPDH; for Ifng relative mRNA expression (M1 gene) / Il1 relative mRNA expression (M1 gene) / Il6 relative mRNA expression (M1 gene) / Nos2 relative mRNA expression (M1 gene) / Tnfa relative mRNA expression (M1 gene): Table 8, LPS polarized murine BMDMs
# From the text: […] M2 markers Mmr, Ym1, Fizz1 and Mgl mRNA and M1 markers I11, 116 and Tnfa mRNA was quantitated by RT PCR. Values are mean±SEM (n=3-4). Expression of gene of interest is normalized to GAPDH. […] The data provide direct evidence that Compound 1 can block the immunosuppressive macrophage M2 gene expression and activate the M1 gene expression and therefore activate antitumor innate immune cell differentiation in vitro.
# (§1) Relative mRNA expression of IL4 or LPS polarized genes in murine bone marrow derived macrophages (BMDMs) treated with various concentrations of inhibitors in vitro. Conclusion: Compound 3 suppressed in vitro macrophage specific immunosuppressive M2 gene expression markers and augmented macrophage stimulatory immune response M1 genes respectively.
# [2] = system: Bone marrow derived macrophages (BMDMs), M2 gene expression; assay: M2 marker mRNA in IL4 stimulated bone marrow derived macrophages (RT PCR); format: cell-based, murine; conditions: control = 1; for Arg mRNA expression relative to control / Fizz1 mRNA expression relative to control / Mgl mRNA expression relative to control / Mmr mRNA expression relative to control / Ym1 mRNA expression relative to control: IL4 stimulated BMDMs, 24 hours, normalized to GAPDH; for Arg relative mRNA expression (M2 gene) / Il10 relative mRNA expression (M2 gene) / Mmr relative mRNA expression (M2 gene) / Tgfb relative mRNA expression (M2 gene) / Vegf relative mRNA expression (M2 gene): Table 7, IL4 polarized murine BMDMs
# Protocol: Bone marrow derived macrophages (MOs) (BMDMs) were exposed to IL4 or LPS for 24 hours to stimulate the M2 or M1 macrophage transition in presence of Compound 1 and the known SYK inhibitor Bay-61-3606 at 1 μM conc. M2 markers Mmr, Ym1, Fizz1 and Mgl mRNA and M1 markers I11, 116 and Tnfa mRNA was quantitated by RT PCR. Values are mean±SEM (n=3-4). Expression of gene of interest is normalized to GAPDH. […] The data provide direct evidence that Compound 1 can block the immunosuppressive macrophage M2 gene expression and activate the M1 gene expression and therefore activate antitumor innate immune cell differentiation in vitro.
# as §1
# SYK = molecular target: T1, SYK (Homo sapiens, UniProt P43405); assay: SYK inhibition IC50 (Reaction Biology Corp.); format: biochemical
# T1 construct: purchased Reaction Biology Corp., Malvern, Pa; (contract assay service)
# From the text: (§2) The inhibitory activity of a compound of the invention against PI3K and/or BRD4 and/or SYK and/or CDK4/6 can be readily determined using methods known to the skilled artisan, or by commercial vendors offering such services. […] In vivo, PI3K inhibition can be determined from target tissue biopsies by standard tissue processing to disrupt cells and then performing Western Blot analysis to determine the presence or absence of pAKT (substrate of PI3K) relative to a control sample. The activity of a compound of the invention as an inhibitor of a bromodomain-containing protein, such as a BET protein, such as BRD2, BRD3, BRD4, and/or BRDT, or an isoform or mutant thereof, may be determined in vitro, in vivo, or in a cell line. In vitro assays include assays that determine inhibition of bromodomain-containing proteins. Alternatively, inhibitor binding may be determined by running a competition experiment where a provided compound is incubated with a bromodomain-containing protein, such as a BET protein bound to known ligands, labeled or unlabeled. For example, bromodomain inhibition can be determined in vitro using Alpha Screen Technology (http://www.reactionbiologv.com/webapps/site/NewsPDFs/Bromodomain%20Assay %20Platform %20for %20Drug %20Screening %20and %20Discovery.pdf). In vivo bromodomain inhibition can be determined indirectly by evaluating the amount of protein present of proteins whose genes' transcription is influenced or controlled by the bromodomain protein, for example, the MYCN protein transcription is controlled by BRD4 (J. E. Delmore et al., Cell 2011, 146, 904-917; A. Puissant, Cancer Discov. 2013, 3, 308-323). Bromodomain inhibition may also be predicted by in silico modeling as described below in the Examples. Additionally, the company Promega offers a SYK luminescent assay to determine a compound's ability to inhibit the SYK protein (https://www.promega.com/-/media/files/resources/protocols/kinase-enzyme-appnotes/syk-kinase-assay-protocol.pdf?la=en).
# Compounds of the invention were characterized for their ability to inhibit target proteins using third party vendors offering such services. PI3K alpha, gamma, and delta inhibition activity was determined by Thermo Fisher Scientific-Biosciences Life Sciences Solutions, Madison, Wis. The bromodomain protein inhibition (binding domain 1 and 2 of BRD4) as well as SYK inhibition was determined at Reaction Biology Corp., Malvern, Pa. Additional information on each of the assays performed and services provided is available at each company's website on the internet (https://www.thermofisher.com/us/en/home/life-science.html and http://www.reactionbiology.com/webapps/site, respectively). The IC50 data (shown below in Table 5) was calculated from a 10-point curve and is expressed in nanomolar concentration (nM) rounded off to the nearest whole number. Where multiple values were obtained the range from lowest to highest values is presented. NI=no inhibition detected up to 50 uM or IC50 not reached at 50 uM.
# PI3K α = molecular target: T2, PI3K α (Homo sapiens, UniProt P42336); assay: PI3K alpha inhibition IC50 (Thermo Fisher); format: biochemical; conditions: 10-point curve
# T2 construct: purchased Thermo Fisher Scientific-Biosciences Life Sciences Solutions, Madison, Wis; (contract assay service)
# T2 sequence (P42336 whole entry): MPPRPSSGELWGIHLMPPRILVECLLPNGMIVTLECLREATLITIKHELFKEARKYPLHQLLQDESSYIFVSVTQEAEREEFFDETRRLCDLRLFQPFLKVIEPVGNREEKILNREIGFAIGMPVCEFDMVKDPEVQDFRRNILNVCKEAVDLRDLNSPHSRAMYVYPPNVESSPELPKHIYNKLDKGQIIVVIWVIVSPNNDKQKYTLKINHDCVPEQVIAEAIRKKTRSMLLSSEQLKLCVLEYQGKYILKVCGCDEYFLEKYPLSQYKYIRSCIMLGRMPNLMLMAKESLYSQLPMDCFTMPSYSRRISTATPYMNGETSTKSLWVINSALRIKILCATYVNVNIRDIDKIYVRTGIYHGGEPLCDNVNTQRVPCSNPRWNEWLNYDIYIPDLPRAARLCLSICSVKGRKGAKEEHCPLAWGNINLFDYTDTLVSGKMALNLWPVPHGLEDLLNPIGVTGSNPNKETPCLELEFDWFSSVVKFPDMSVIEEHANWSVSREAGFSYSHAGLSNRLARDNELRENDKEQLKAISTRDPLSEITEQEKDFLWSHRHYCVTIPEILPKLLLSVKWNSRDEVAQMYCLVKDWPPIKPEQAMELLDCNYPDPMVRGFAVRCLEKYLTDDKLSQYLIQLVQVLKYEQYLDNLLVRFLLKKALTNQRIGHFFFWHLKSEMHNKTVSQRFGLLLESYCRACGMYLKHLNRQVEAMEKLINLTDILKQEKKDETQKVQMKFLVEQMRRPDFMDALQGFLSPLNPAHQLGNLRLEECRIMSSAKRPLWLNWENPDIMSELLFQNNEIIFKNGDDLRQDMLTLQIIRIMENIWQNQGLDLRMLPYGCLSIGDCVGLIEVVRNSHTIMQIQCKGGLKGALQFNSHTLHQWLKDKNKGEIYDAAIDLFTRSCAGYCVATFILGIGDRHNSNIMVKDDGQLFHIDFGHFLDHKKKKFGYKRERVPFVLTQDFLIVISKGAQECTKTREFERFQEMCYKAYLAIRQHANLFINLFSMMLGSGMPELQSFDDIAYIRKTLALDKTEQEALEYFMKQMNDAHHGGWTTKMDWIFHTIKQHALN
# T2 sequence (P27986 whole entry partner): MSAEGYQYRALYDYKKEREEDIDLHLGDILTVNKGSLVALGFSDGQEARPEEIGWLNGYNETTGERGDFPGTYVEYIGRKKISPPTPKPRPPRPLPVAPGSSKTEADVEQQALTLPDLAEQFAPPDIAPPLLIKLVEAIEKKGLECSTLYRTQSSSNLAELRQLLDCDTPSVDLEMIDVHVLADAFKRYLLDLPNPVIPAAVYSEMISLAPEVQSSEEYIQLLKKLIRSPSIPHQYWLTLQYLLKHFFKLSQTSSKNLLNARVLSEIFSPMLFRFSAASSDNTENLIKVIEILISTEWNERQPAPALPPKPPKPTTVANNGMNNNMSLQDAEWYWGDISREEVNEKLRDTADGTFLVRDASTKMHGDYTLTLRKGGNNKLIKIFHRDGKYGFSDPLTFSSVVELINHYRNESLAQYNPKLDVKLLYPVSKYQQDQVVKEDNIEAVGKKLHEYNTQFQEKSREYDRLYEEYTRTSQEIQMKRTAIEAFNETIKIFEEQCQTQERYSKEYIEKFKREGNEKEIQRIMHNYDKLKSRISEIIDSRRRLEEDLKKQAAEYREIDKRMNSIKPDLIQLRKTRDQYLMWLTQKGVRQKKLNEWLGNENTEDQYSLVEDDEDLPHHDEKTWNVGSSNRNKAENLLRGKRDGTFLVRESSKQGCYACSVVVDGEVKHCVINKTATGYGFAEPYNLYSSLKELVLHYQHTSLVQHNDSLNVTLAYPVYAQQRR
# From the text: as §2
# (§3) Compounds of the invention were characterized for their ability to inhibit target proteins using third party vendors offering such services. PI3K alpha, gamma, and delta inhibition activity was determined by Thermo Fisher Scientific-Biosciences Life Sciences Solutions, Madison, Wis. The bromodomain protein inhibition (binding domain 1 and 2 of BRD4) as well as SYK inhibition was determined at Reaction Biology Corp., Malvern, Pa. […] The IC50 data (shown below in Table 5) was calculated from a 10-point curve and is expressed in nanomolar concentration (nM) rounded off to the nearest whole number. […]
# PI3K γ = molecular target: T3, PI3K γ (Homo sapiens, UniProt P48736); assay: PI3K gamma inhibition IC50 (Thermo Fisher); format: biochemical; conditions: 10-point curve
# T3 construct: purchased Thermo Fisher Scientific-Biosciences Life Sciences Solutions, Madison, Wis; (contract assay service)
# T3 sequence (P48736 whole entry): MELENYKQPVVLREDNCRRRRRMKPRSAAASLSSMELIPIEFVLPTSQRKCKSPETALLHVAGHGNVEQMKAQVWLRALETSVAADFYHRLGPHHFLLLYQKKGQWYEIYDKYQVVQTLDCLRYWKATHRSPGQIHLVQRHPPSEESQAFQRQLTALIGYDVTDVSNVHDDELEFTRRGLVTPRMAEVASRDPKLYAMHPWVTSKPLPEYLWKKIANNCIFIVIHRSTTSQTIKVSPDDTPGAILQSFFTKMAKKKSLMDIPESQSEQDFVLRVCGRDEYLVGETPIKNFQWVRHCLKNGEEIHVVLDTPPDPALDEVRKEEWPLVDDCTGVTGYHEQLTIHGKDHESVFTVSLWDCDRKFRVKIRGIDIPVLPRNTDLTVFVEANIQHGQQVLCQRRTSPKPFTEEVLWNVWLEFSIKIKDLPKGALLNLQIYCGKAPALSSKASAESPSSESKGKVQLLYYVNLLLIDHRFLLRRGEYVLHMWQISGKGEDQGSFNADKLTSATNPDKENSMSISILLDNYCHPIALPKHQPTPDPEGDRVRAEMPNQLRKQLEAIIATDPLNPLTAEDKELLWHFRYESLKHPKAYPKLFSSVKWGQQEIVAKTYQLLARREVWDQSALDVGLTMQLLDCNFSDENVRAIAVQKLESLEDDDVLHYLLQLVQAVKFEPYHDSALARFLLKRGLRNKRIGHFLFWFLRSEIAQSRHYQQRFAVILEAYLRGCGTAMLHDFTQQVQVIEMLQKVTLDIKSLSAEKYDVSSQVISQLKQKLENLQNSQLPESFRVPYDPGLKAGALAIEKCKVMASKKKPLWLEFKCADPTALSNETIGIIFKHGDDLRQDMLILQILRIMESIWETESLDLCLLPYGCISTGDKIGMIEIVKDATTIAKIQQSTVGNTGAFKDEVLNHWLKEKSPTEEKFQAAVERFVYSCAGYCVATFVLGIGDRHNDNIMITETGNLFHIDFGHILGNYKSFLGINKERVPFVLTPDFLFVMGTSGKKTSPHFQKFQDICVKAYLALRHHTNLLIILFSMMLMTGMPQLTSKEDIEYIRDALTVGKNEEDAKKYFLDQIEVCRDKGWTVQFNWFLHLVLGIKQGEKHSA
# From the text: as §2, §3
# BRD4-1 = molecular target: T4, BRD4-1 (Homo sapiens, UniProt O60885); assay: Bromodomain protein inhibition IC50, binding domain 1 of BRD4 (Reaction Biology Corp.); conditions: 10-point curve
# T4 construct: purchased Reaction Biology Corp., Malvern, Pa; (contract assay service)
# From the text: as §2, §3
# BRD4-2 = molecular target: T5, BRD4-2 (Homo sapiens, UniProt O60885); assay: Bromodomain protein inhibition IC50, binding domain 2 of BRD4 (Reaction Biology Corp.); conditions: 10-point curve
# T5 construct: purchased Reaction Biology Corp., Malvern, Pa; (contract assay service)
# From the text: as §2, §3
# [3] = 10-point curve, read-out: SYK IC50
compound,measurement,setting,value
"COc1ccc(-c2cc3nccn3c(Nc3ncccc3C(N)=O)n2)cc1OC [Bay 61-3606, Bay-61-3606, reference compound]",Il1 mRNA expression relative to control,[1]; 500 nM,0.66
same,Il6 mRNA expression relative to control,[1]; 500 nM,0.79
same,Tnfa mRNA expression relative to control,[1]; 500 nM,0.88
same,Il1 mRNA expression relative to control,[1]; 1 μM,0.22
same,Il6 mRNA expression relative to control,[1]; 1 μM,0.31
same,Tnfa mRNA expression relative to control,[1]; 1 μM,0.69
same,Il1 mRNA expression relative to control,[1]; 5 μM,0.11
same,Il6 mRNA expression relative to control,[1]; 5 μM,1.63
same,Tnfa mRNA expression relative to control,[1]; 5 μM,2.25
same,Arg mRNA expression relative to control,[2]; 500 nM,0.35
same,Fizz1 mRNA expression relative to control,[2]; 500 nM,0.05
same,Mgl mRNA expression relative to control,[2]; 500 nM,0.33
same,Mmr mRNA expression relative to control,[2]; 500 nM,0.12
same,Ym1 mRNA expression relative to control,[2]; 500 nM,0.07
same,Arg mRNA expression relative to control,[2]; 1 μM,0.33
same,Fizz1 mRNA expression relative to control,[2]; 1 μM,0.005
same,Mgl mRNA expression relative to control,[2]; 1 μM,0.34
same,Mmr mRNA expression relative to control,[2]; 1 μM,0.12
same,Ym1 mRNA expression relative to control,[2]; 1 μM,0.07
same,Arg mRNA expression relative to control,[2]; 5 μM,0.06
same,Fizz1 mRNA expression relative to control,[2]; 5 μM,0.0013
same,Mgl mRNA expression relative to control,[2]; 5 μM,0.36
same,Mmr mRNA expression relative to control,[2]; 5 μM,0.15
same,Ym1 mRNA expression relative to control,[2]; 5 μM,0.04
O=c1cc(N2CCOCC2)oc2c(-c3ccc4c(c3)OCCO4)csc12 [Compound 0],IC50,"SYK; note to Table 5, read-out: SYK inhibition IC50",> 50 µM
"Cc1nn(-c2ccnc(Nc3ccc(-c4csc5c(=O)cc(N6CCNCC6)oc45)cc3)n2)cc1CN1CC(O)C1 [Compound 2, 3-[p-(4-{4-[(3-Hydroxy-1-azetidinyl)methyl]-3-methyl-1H-pyrazol-1-yl}-2-pyrimidinylamino)phenyl]-5-(1-piperazinyl)-4-oxa-1-thia-7-indenone dihydrochloride]",IC50,PI3K α,1 to 5 µM
same,IC50,PI3K γ,> 50 µM
same,IC50,SYK; [3],< 0.1 µM
same,IC50,BRD4-1,5 to 50 µM
same,IC50,BRD4-2,> 50 µM
"Cc1nn(-c2ccnc(Nc3ccc(-c4csc5c(=O)cc(N6CCNCC6)oc45)cc3)n2)cc1CN1CCC1 [Compound 4, 3-[p-(4-{4-[(1-Azetidinyl)methyl]-3-methyl-1H-pyrazol-1-yl}-2-pyrimidinylamino)phenyl]-5-(1-piperazinyl)-4-oxa-1-thia-7-indenone dihydrochloride]",IC50,PI3K α,5 to 50 µM
same,IC50,PI3K γ,> 50 µM
same,IC50,SYK; [3],0.1 to 1 µM
same,IC50,BRD4-1,5 to 50 µM
same,IC50,BRD4-2,> 50 µM
"COc1cc(Nc2ncc(F)c(Nc3ccc4c(n3)N(COP(=O)(O)O)C(=O)C(C)(C)O4)n2)cc(OC)c1OC [Compound R788, fostamatinib, reference compound]",Ifng relative mRNA expression (M1 gene),[1]; 500 nM,3.2 ± 0.09
same,Il1 relative mRNA expression (M1 gene),[1]; 500 nM,1.4 ± 0.003
same,Il6 relative mRNA expression (M1 gene),[1]; 500 nM,1.8 ± 0.05
same,Nos2 relative mRNA expression (M1 gene),[1]; 500 nM,0.6 ± 0.014
same,Tnfa relative mRNA expression (M1 gene),[1]; 500 nM,1.4 ± 0.13
same,Arg relative mRNA expression (M2 gene),[2]; 500 nM,0.352 ± 0.07
same,Il10 relative mRNA expression (M2 gene),[2]; 500 nM,0.35 ± 0.026
same,Mmr relative mRNA expression (M2 gene),[2]; 500 nM,0.31 ± 031
same,Tgfb relative mRNA expression (M2 gene),[2]; 500 nM,0.771 ± .007
same,Vegf relative mRNA expression (M2 gene),[2]; 500 nM,0.58 ± 0.065
"C[C@H](NC(=O)c1c(N)nn2cccnc12)c1cc2cccc(C#Cc3cnn(C)c3)c2c(=O)n1-c1ccccc1 [IPI549, reference compound]",Ifng relative mRNA expression (M1 gene),[1]; 500 nM,1.9 ± 0.249
same,Il1 relative mRNA expression (M1 gene),[1]; 500 nM,3.9 ± 0.003
same,Il6 relative mRNA expression (M1 gene),[1]; 500 nM,1.8 ± 0.05
same,Nos2 relative mRNA expression (M1 gene),[1]; 500 nM,0.83 ± .04
same,Tnfa relative mRNA expression (M1 gene),[1]; 500 nM,0.984 ± .16
same,Arg relative mRNA expression (M2 gene),[2]; 500 nM,0.62 ± 0.08
same,Il10 relative mRNA expression (M2 gene),[2]; 500 nM,0.081 ± .002
same,Mmr relative mRNA expression (M2 gene),[2]; 500 nM,0.324 ± 0.049
same,Tgfb relative mRNA expression (M2 gene),[2]; 500 nM,0.568 ± 0.05
same,Vegf relative mRNA expression (M2 gene),[2]; 500 nM,0.374 ± .132
